Laboratory results: patent US20110130428A1, “Sublingual Compositions Comprising (2S) - (4E) -N-Methyl-5- (3- (5-Isopropoxypyridin) YL)-4-Penten-2-Amine” (ASTRAZENECA AB, priority 2008, published 2011)
Where two headings read alike, the source gives them in different places.

What was measured:
[1] = male, beagle, dog, in vivo, 13 mg
Procedure: (§3) Two male Beagle dogs weighing 13-15 kg were used in the study. At one occasion the dogs were administered the sublingual composition under the tongue (i.e. as intended) and at the other occasion, after a washout period of 7 days, they were given the sublingual composition orally (i.e. into the stomach by gavage together with 40 ml of water).
(§4) The dogs were fasted overnight and until four hours after dose administration. Water was allowed ad lib until one hour before dosing and after three hours following dosing. To minimize the chance of swallowing during the sublingual study occasion, the dogs were anesthetized by intravenous bolus injection of Diprivan (10 mg/ml, AstraZeneca, Sweden) 0.8-1 ml/kg, followed by intubation, connection to a respiratory ventilator (Servo ventilator 900C, Siemens-Elema AB, Sweden) and capnograph (RespSense, MedAir AB, Sweden) and given additional anesthesia with 1.5% Isofluran (Isoba Vet., Schering-Plough AB, Sweden). The dogs were kept anesthetized for one hour after the administration of the sublingual composition under the tongue. The dogs were not anesthetized during the oral administration occasion.
(§5) Venous blood samples (2 mL) were collected before (0) and after 5, 15, 30, 45 minutes, 1.0, 1.5, 2.0, 3.0, 4.0, 6.0 and 8.0 hours after dosing. The samples were collected into vacuum tubes (BD Vacutainer K2-EDTA, Becton&Dickinson AB, Sweden), placed on ice and centrifuged for 10 minutes (4° C., 1500 g) within 30 minutes after sampling. The plasma was then transferred to 1.8 ml Nunc Cryo tubes (InterMed A/S, Denmark) and frozen (−20° C.) pending analysis.
(§6) The plasma samples (50 μL) were analyzed for Compound A and its metabolite Compound B by a standard LC-MS/MS analytical method. The determinations of the concentration of Compound A and Compound B in plasma was performed by liquid-liquid extraction followed by reversed-phase liquid chromatography and tandem mass spectrometry. Determinations of both Compound A and Compound B were performed in the range 0.8 to 200 nmol/L. Samples outside the range of determination were diluted up to 10 times. Quality control samples at three concentrations were interspersed with the study samples at 2.40, 16.0 and 160 nmol/L. The internal standard used in the assay was Deuterium labeled Compound A (AstraZeneca R&D, Sweden).
(§7) Exposure of animals to Compound A and it's metabolite Compound B expressed as area under the curve from time zero to the last sampling time, AUC(0-8 h), was obtained by means of non compartmental analysis in WinNonlin (version 4.0, Pharsight Corporation, USA). The maximum concentration, Cmax, and time of maximum concentration, Tmax, were direct observations from the plasma concentration versus time data. AUC(0-8 h) was calculated by means of the linear up-log down method. The area under the curve from zero to infinity, AUC, was calculated in a similar manner, with extrapolation from time of the last observed concentration, tlast, to infinity by adding the ratio of Cpred (predicted plasma concentration at tlast) and terminal slope factor. The terminal slope factor and subsequently the terminal half life (T1/2) were estimated in WinNonlin by log linear regression of the terminal phase (4 data points were used) of the plasma concentration time curve.

in vivo = conditions: male, beagle, dog, 13 mg; for AUC(0-t): AUC (0-8 h)
Procedure: as §3, §4, §5, §6, §7

[2] = dose range 2 to 320 mg, healthy volunteers; cited from earlier work
[3] = Intestinal permeability (fraction of an oral dose absorbed); format: in vivo
From the text: (§1) Thus, the dissolution and intestinal permeability is not the reason for the observed high intersubject variability in plasma concentrations of Compound A.

[4] = Animal study: plasma pharmacokinetics of Compound A and metabolite Compound B after sublingual or oral administration of the Compound A solid composition; conditions: for Cmax, relative difference in exposure sublingual compared to oral / AUC, relative difference in exposure sublingual compared to oral: 100*sublingual value/oral value; for AUC, relative difference in exposure sublingual compared to oral: AUC for Compound A; for AUC(0-t) / AUC / Cmax / Tmax / half-life / concentration at 5 min: male, beagle, dog, plasma, 13 mg; for AUC(0-t): AUC (0-8 h); for AUC(0-t) / AUC / Cmax / Tmax / half-life: Example 6 tablet; for AUC: zero to infinity; for half-life: T½; for concentration at 5 min: plasma concentration at 5 minutes
Procedure: as §3, §4, §5, §6, §7

[5] = tested on: NNR subtypes that characterize the human ganglia; assay: Nicotinic function in adrenal chromaffin tissue; format: cell-based; conditions: ganglionic NNR subtypes
From the text: (§2) It is advantageous that the treatment or prevention of diseases, disorders and conditions occurs without appreciable adverse side effects (e.g., significant increases in blood pressure and heart rate, significant negative effects upon the gastro-intestinal tract, and significant effects upon skeletal muscle). […] Thus, Compound A is capable of treating and/or preventing diseases, disorders and conditions without eliciting significant side effects associated with activity at ganglionic and neuromuscular sites.

[6] = Solubility / Biopharmaceutical Classification System (BCS) class; format: physicochemical
From the text: as §1

muscle-type NNRs = assay: Nicotinic function in cell preparations expressing muscle-type NNRs; format: cell-based; conditions: skeletal muscle NNR
From the text: as §2

[7] = Beagle dogs, cited from earlier work
[8] = Sublingual, Subject 1, anesthetized dog, 13 mg Compound A
[9] = Sublingual, Subject 2, anesthetized dog, 13 mg Compound A
[10] = po, Oral (gavage), Subject 1, dog, 13 mg Compound A
[11] = po, Oral (gavage), Subject 2, dog, 13 mg Compound A

## CC(C)Oc1cncc(/C=C/C[C@H](C)N)c1 [Compound B, (4E)-5-(3-(5-isopropoxypyridin)yl)-4-penten-2-amine]
[1]
  AUC (0-8 h): 0.59 µM·h
  Cmax: 110 nM
  Tmax: 6 h
  decrease of exposure (Cmax, AUC 0-8 h) following sublingual compared to oral administration of Compound A: 30-70%
[1]; po
  AUC (0-8 h): 1 µM·h
  Cmax: 230 nM
  Tmax: 1 h
In vivo
  AUC(0-t): 0.51 µM·h
  Cmax: 99 nM
  Tmax: 4 h
In vivo; po
  AUC(0-t): 1 µM·h
  Cmax: 210 nM
  Tmax: 1.5 h

## CN[C@@H](C)C/C=C/c1cncc(OC(C)C)c1 [Compound A, (2S)-(4E)-N-methyl-5-(3-(5-isopropoxypyridin)yl)-4-penten-2-amine]
[2]
  degree of exposure after oral administration: intersubject variability in the degree of exposure
[3]
  intestinal permeability: oral dose absorbed: more than 90%
[4]; Subject 1, dog
  Cmax, relative difference in exposure sublingual compared to oral: 740 % difference
  AUC, relative difference in exposure sublingual compared to oral: 550 % difference
[4]; Subject 2, dog
  Cmax, relative difference in exposure sublingual compared to oral: 510 % difference
  AUC, relative difference in exposure sublingual compared to oral: 520 % difference
[4]; [8]
  AUC(0-t): 2 µM·h
  AUC: 2.1 µM·h
  Cmax: 1400 nM
  Tmax: 0.5 h
  half-life: 1.3 h
[4]; [9]
  AUC(0-t): 1.5 µM·h
  AUC: 1.5 µM·h
  Cmax: 610 nM
  Tmax: 1 h
  half-life: 1.4 h
[4]; other: sublingual, 5 minutes after sublingual administration, Subject 1, dog
  concentration at 5 min: ~200 nM
[4]; other: sublingual, 5 minutes after sublingual administration, Subject 2, dog
  concentration at 5 min: ~60 nM
[4]; [10]
  AUC(0-t): 0.37 µM·h
  AUC: 0.38 µM·h
  Cmax: 190 nM
  half-life: 1.3 h
[4]; [11]
  AUC(0-t): 0.28 µM·h
  AUC: 0.29 µM·h
  Cmax: 120 nM
  Tmax: 1 h
  half-life: 1.3 h
[4]; po, Oral (gavage), Subject 1, dog, 13 mg (as base) Compound A hydroxybenzoate salt
  Tmax: 0.75 h
[4]; po, 5 minutes after oral administration, Subject 1, dog
  concentration at 5 min: ~2 nM
[4]; po, 5 minutes after oral administration, Subject 2, dog
  concentration at 5 min: ~1.5 nM
[5]
  ability to elicit nicotinic function in adrenal chromaffin tissue: lack of ability to elicit nicotinic function
[6]
  Biopharmaceutical Classification System (BCS) class: Class I
[6]; highest dose strength is easily dissolved in 250 ml of aqueous media at all physiological pH values
  solubility: very good solubility
muscle-type NNRs
  ability to elicit nicotinic function in cell preparations expressing muscle-type NNRs: lack of ability to elicit nicotinic function
[7]; oral
  oral bioavailability: about 30%
[7]
  total plasma clearance relative to hepatic blood flow: markedly higher than the hepatic blood flow
